The experiment concerns HCT116. To be noted: 72 h. The method, boiled down: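 Each well of the 1536-well plates received 250 HCT116 cells, which attached over 5 h. Luminescence was measured with CellTiter-Glo, scaled with vehicle as 0% and positive control as -100%, and pattern-corrected. A four-parameter Hill fit yielded IC50 and maximal efficacy.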

SMILES strings stand for the structures. Where a name gives a salt, the structure may show the parent alone.

The values below come from the supplement of paper PMC12137928.

Turning to `CC(C)(C)NCC(O)c1cc(Cl)c(N)c(C(F)(F)F)c1` (configuration not stated) [Mabuterol hydrochloride], the IC50 cell viability was greater than 45.8 µM (ICRF193 0 nM) and greater than 45.8 µM (ICRF193 200 nM).

Turning to `c1ccc2c(c1)sc1ccccc12` [Dibenzothiophene], the IC50 cell viability by setting is: (ICRF193 0 nM) greater than 45.8 µM; (ICRF193 200 nM) greater than 45.8 µM.

`Cn1c(=O)cc(N2CCC[C@@H](N)C2)n(Cc2ccccc2C#N)c1=O` [ALOGLIPTIN BENZOATE] yielded an IC50 cell viability (ICRF193 0 nM) greater than 45.8 µM and an IC50 cell viability (ICRF193 200 nM) greater than 45.8 µM.

On to `CC12CCC(CC1=O)C2(C)C` [D-Camphor], for which the IC50 cell viability was greater than 45.8 µM (ICRF193 0 nM) and greater than 45.8 µM (ICRF193 200 nM).

On to `C[C@H](CCC(=O)O)[C@H]1CC[C@H]2[C@@H]3[C@@H](O)C[C@@H]4C[C@H](O)CC[C@]4(C)[C@H]3CC[C@]12C` [Ursodiol], for which the IC50 cell viability is greater than 45.8 µM (ICRF193 0 nM) and greater than 45.8 µM (ICRF193 200 nM).

Turning to `CC(=O)NS(=O)(=O)c1ccc(N)cc1` [Sulfacetamide], the IC50 cell viability runs as follows: (ICRF193 0 nM) greater than 45.8 µM; (ICRF193 200 nM) greater than 45.8 µM.

As to `NC(N)=Nc1nc(CSCC/C(N)=N/S(N)(=O)=O)cs1` [Famotidine], the IC50 cell viability by setting is: (ICRF193 0 nM) greater than 45.8 µM; (ICRF193 200 nM) greater than 45.8 µM.

As to `O=C1NS(=O)(=O)c2ccccc21` [Saccharin], the IC50 cell viability is greater than 45.8 µM (ICRF193 0 nM) and greater than 45.8 µM (ICRF193 200 nM).

Take `CCCc1cc(C(N)=S)ccn1` [Protionamide]: the IC50 cell viability (ICRF193 0 nM) is greater than 45.8 µM and the IC50 cell viability (ICRF193 200 nM) was greater than 45.8 µM.

In the case of `COc1cc(NS(=O)(=O)c2ccc(N)cc2)ncn1` [Sulfamonomethoxine], the IC50 cell viability is greater than 45.8 µM (ICRF193 0 nM) and greater than 45.8 µM (ICRF193 200 nM).

Take `COc1ccc2cc([C@H](C)C(=O)O)ccc2c1` [Naproxen sodium]: the IC50 cell viability is, setting by setting: (ICRF193 0 nM) greater than 45.8 µM; (ICRF193 200 nM) greater than 45.8 µM.

As to `COCCCC/C(=N\OCCN)c1ccc(C(F)(F)F)cc1` [Fluvoxamine], the IC50 cell viability runs as follows: (ICRF193 0 nM) greater than 45.8 µM; (ICRF193 200 nM) greater than 45.8 µM.

In turn, `CCOc1cc([C@@H](CS(C)(=O)=O)N2C(=O)c3cccc(NC(C)=O)c3C2=O)ccc1OC` came in with an IC50 cell viability (ICRF193 0 nM) greater than 45.8 µM and an IC50 cell viability (ICRF193 200 nM) greater than 45.8 µM.

`C[C@]12C=CC(=O)C=C1CC[C@@H]1[C@@H]2[C@@H](O)C[C@@]2(C)[C@H]1CC[C@]2(O)C(=O)CO` [Prednisolone]: the IC50 cell viability (ICRF193 0 nM) is greater than 45.8 µM and the IC50 cell viability (ICRF193 200 nM) is greater than 45.8 µM.

As for `O=S(=O)(O)CC(S)CS` (configuration not stated) [Sodium 2,3-dimercaptopropanesulfonate monohydrate], the IC50 cell viability (ICRF193 0 nM) was greater than 45.8 µM and the IC50 cell viability (ICRF193 200 nM) was greater than 45.8 µM.

Take `O=C(CCCN1CCC(O)(c2ccc(Cl)cc2)CC1)c1ccc(F)cc1` [Haloperidol]: the IC50 cell viability is greater than 45.8 µM (ICRF193 0 nM) and greater than 45.8 µM (ICRF193 200 nM).

`OCCN1C[C@H](O)[C@@H](O)[C@H](O)[C@H]1CO` [Miglitol]: the IC50 cell viability (ICRF193 0 nM) was greater than 45.8 µM and the IC50 cell viability (ICRF193 200 nM) is greater than 45.8 µM.

With `N[C@H](Cc1c[nH]c2ccccc12)C(=O)O` [d-Tryptophan], the IC50 cell viability by setting is: (ICRF193 0 nM) greater than 45.8 µM; (ICRF193 200 nM) greater than 45.8 µM.

For the compound `CC[N+](CC)(CC)CCC(O)(c1ccccc1)C1CCCCC1` (configuration not stated) [Tridihexethyl chloride], the IC50 cell viability reads like this: (ICRF193 0 nM) greater than 45.8 µM; (ICRF193 200 nM) greater than 45.8 µM.

As to `CN[C@@H]1[C@@H](O)[C@@H](O[C@@H]2[C@@H](O)[C@H](O[C@H]3O[C@H](CN)CC[C@H]3N)[C@@H](N)C[C@H]2N)OC[C@]1(C)O.CN[C@@H]1[C@@H](O)[C@@H](O[C@@H]2[C@@H](O)[C@H](O[C@H]3O[C@H]([C@@H](C)N)CC[C@H]3N)[C@@H](N)C[C@H]2N)OC[C@]1(C)O.CN[C@@H]1[C@@H](O)[C@@H](O[C@@H]2[C@@H](O)[C@H](O[C@H]3O[C@H]([C@@H](C)NC)CC[C@H]3N)[C@@H](N)C[C@H]2N)OC[C@]1(C)O` [GENTAMICIN SULFATE], the IC50 cell viability by setting is: (ICRF193 0 nM) greater than 45.8 µM; (ICRF193 200 nM) greater than 45.8 µM.

As to `CCCCC(O)c1ccccc1` (configuration not stated) [Fenipentol], the IC50 cell viability by setting is: (ICRF193 0 nM) greater than 45.8 µM; (ICRF193 200 nM) greater than 45.8 µM.

With `Cc1c(N)nc([C@H](CC(N)=O)NC[C@H](N)C(N)=O)nc1C(=O)N[C@H](C(=O)N[C@H](C)[C@@H](O)[C@H](C)C(=O)N[C@H](C(=O)NCCc1nc(-c2nc(C(=O)NCCCN[C@@H](C)c3ccccc3)cs2)cs1)[C@@H](C)O)[C@@H](O[C@@H]1O[C@@H](CO)[C@@H](O)[C@H](O)[C@@H]1O[C@H]1O[C@H](CO)[C@@H](O)[C@H](OC(N)=O)[C@@H]1O)c1c[nH]cn1` [Peplomycin sulfate], the IC50 cell viability runs as follows: (ICRF193 0 nM) greater than 45.8 µM; (ICRF193 200 nM) greater than 45.8 µM.

Take `Cc1ncc([N+](=O)[O-])n1CC(C)O` (configuration not stated) [Secnidazole]: the IC50 cell viability by setting is: (ICRF193 0 nM) greater than 45.8 µM; (ICRF193 200 nM) greater than 45.8 µM.

Regarding `CC1(C)[C@@H](O)CC[C@]2(C)[C@H]3C(=O)C=C4[C@@H]5C[C@@](C)(C(=O)O)CC[C@]5(C)CC[C@@]4(C)[C@]3(C)CC[C@@H]12` [ENOXOLONE], the IC50 cell viability runs as follows: (ICRF193 0 nM) greater than 45.8 µM; (ICRF193 200 nM) greater than 45.8 µM.

On to `N=C(N)NCCC[C@H](N)C(=O)O` [L-Arginine], for which the IC50 cell viability by setting is: (ICRF193 0 nM) greater than 45.8 µM; (ICRF193 200 nM) greater than 45.8 µM.

In the case of `OCCN(CCO)c1nc(N2CCCCC2)c2nc(N(CCO)CCO)nc(N3CCCCC3)c2n1` [Dipyridamole], the IC50 cell viability is, setting by setting: (ICRF193 0 nM) greater than 45.8 µM; (ICRF193 200 nM) greater than 45.8 µM.
